Data on three compounds can be found in patent US20260174860A1, “HYBRID COMPOUNDS OF SCLAREOL AND DOXORUBICIN, THEIR SYNTHESIS AND APPLICATION” (INSTITUTE FOR BIOLOGICAL RESEARCH "SINISA STANKOVIC" - …, priority 2023, published 2026).

The test system of series [1] is NCI-H460 human non-small cell lung carcinoma cell line. The series is described as follows: MTT test of cell viability, 72 h treatment. The following applies: for IC50: MTT, 72 h; for Selectivity Index: ratio IC50 MRC-5 (2,000 cells per well) / IC50 NCI-H460. The series is classed as cell-based. As for the experimental part:
(§1) The MTT test was used to evaluate the effect of the compounds on cell viability. The test relies on the reduction of tetrazolium salt (MTT) to formazan, which is catalyzed by the mitochondrial enzyme succinate dehydrogenase. The activity of succinate dehydrogenase, which is indicative of mitochondrial respiration, is taken as an indirect measure of the metabolic activity of the cell, and thus its viability. The MTT-formazan produced is a purple-colored product, whose absorbance is measured at a wavelength of 570 nm. • a) To determine the inhibition of cell growth by SC, different cell lines were exposed to increasing concentrations of SC (5, 10, 25, 50, and 100 μM). The cells were seeded in 96-well microtiter plates at a density of 2,000 cells per well for NCI-H460, NCI-H460/R, DLD1 and DLD1-TxR, and 4,000 cells per well for MRC-5, U87, U87-TxR, and U251 in 100 μL of the appropriate medium. Control cells that received no treatment were also seeded at the same time. After 24 h for adaptation, the cells were treated with various concentrations of SC. After 72 h of treatment, 0.2 mg/ml MTT was added to each well in the appropriate cell culture medium. After 4 h of incubation at 37° C. with 5% CO2, the medium was removed, and 100 μL of DMSO were added to each well, to dissolve the formazan. The absorbance of the samples was measured at 570 nm using a Multiskan Sky Microplate spectrophotometer (ThermoFisher Scientific, USA). The results were analyzed using GraphPad Prism 8.0.2. software, and the IC50 values were determined by non-linear regression. • b) To test the interaction between SC and DOX in terms of cytotoxicity in different cell lines, cells were seeded in 96-well microtiter plates at a density of 2,000 cells per well for NCI-H460, NCI-H460/R, DLD1 and DLD1-TxR, and 4,000 cells per well for MRC-5, U87, U87-TxR, and U251 in 100 μl of the appropriate medium. SC (10 and 20 μM) was combined with increasing concentrations of DOX (20, 50, 100, 200, and 500 nM). The cells were treated with the simultaneous combinations for 72 h. After this period, 0.2 mg/ml MTT was added to each well, followed by 4 hours of incubation at 37° C. with 5% CO2. The medium was then removed, and DMSO was added to each well to dissolve the formazan.
(§2) The analysis was carried out using GraphPad Prism software version 8.0.2 to determine the nature of the interaction, namely synergistic, antagonistic, or additive, between compounds. This was done using the computer software CalcuSyn, which is based on the combination index method. The method takes into account the concentration of compounds, the individual effect of each compound, as well as the effect of two compounds in combination. The values of the combination indices (CI) describe the nature of the interaction: Cl<0.9 indicates synergism, Cl>1.1 indicates antagonism, and Cl=0.9-1.1 indicates an additive effect. • c) To compare the resistance and selectivity profiles among SC, DOX, CON1, and CON2, human glioblastoma cell lines U87, U87-TxR, and MRC-5 were seeded at a density of 4,000 cells per well in 100 μL of the appropriate medium. In contrast, NCI-H460, NCI-H460/R, and MRC-5 were seeded at a density of 2,000 cells per well in 100 μL of the proper medium. The effect of SC derivatives LIG1 and LIG2 was also examined. The range of concentrations differed among the cell lines and the compounds. For LIG1 and LIG2, the range of concentrations for all cell lines was 50, 100, 200, 300, and 400 μM, while the same range was used for the MRC-5 in the case of SC, CON1, and CON2. DOX concentrations ranged 0.1, 0.25, 0.5, 1, and 2.5 μM for U87 and NCI-H460, and 0.25, 0.5, 1, 2.5, and 5 μM for U87-TxR, NCI-H460/R, and MRC-5. […] concentrations used for SC, CON1, and CON2 treatments varied in the range 1, 2.5, 5, 10, 25, 50, and 100 μM. The treatment lasted 72 h. After the treatment period, 0.2 mg/ml MTT in the appropriate cell culture medium was added to each well. […]
For orientation: Formazan colour is commonly taken as a measure of viable cells.

In series [2] the test system is U87 human glioblastoma cell line. The series is described as follows: MTT test of cell viability, 72 h treatment. It is filed as cell-based. To be noted: for IC50: MTT, 72 h; for Selectivity Index: ratio IC50 MRC-5 (4,000 cells per well) / IC50 U87. How it is done:
as §1, §2

Series [3] deals with MRC-5 human lung fibroblast cell line. The experiment in a line: MTT test of cell viability, 72 h treatment. It is filed as cell-based. As for the experimental part: as §1
(§3) The absorbance of the samples was measured at 570 nm using a Multiskan Sky Microplate spectrophotometer.
as §2, with “h.” for “h. After the treatment period, 0.2 mg/ml MTT in the appropriate cell culture medium was added to each well.”

The subject of series [4] is NCI-H460/R resistant human non-small cell lung carcinoma cell line. The series is described as follows: MTT test of cell viability, 72 h treatment. It is filed as cell-based. The following applies: for IC50: MTT, 72 h, MDR line; for Relative Resistance: ratio IC50 NCI-H460/R / IC50 NCI-H460. How it is done: as §1, §3
as §2, with “h.” for “h. After the treatment period, 0.2 mg/ml MTT in the appropriate cell culture medium was added to each well.”

The test system of series [5] is U87-TxR resistant human glioblastoma cell line. The experiment in a line: MTT test of cell viability, 72 h treatment. The series is classed as cell-based. To be noted: for IC50: MTT, 72 h, MDR line; for Relative Resistance: ratio IC50 U87-TxR / IC50 U87. How it is done: as §1, §3
as §2, with “h.” for “h. After the treatment period, 0.2 mg/ml MTT in the appropriate cell culture medium was added to each well.”

Series [6] in a line: Zetasizer measurement of size, polydispersity and zeta potential. To be noted: 25° C., diluted 100 times with ultrapure water, mean of three. The series is classed as physicochemical. As for the experimental part:
The Malvern Zetasizer Nano ZS (Malvern Instruments, United Kingdom) was used to analyze the physico-chemical stability characteristics of conjugates. The measurement range was from 0.6 nm up to […]. The mean size of conjugates, the polydispersity index (PDI) and zeta potential were measured. All measurements were taken at a temperature of 25° C. and each sample was diluted 100 times with ultrapure water. The measurements were repeated three times, and the results were presented as the mean value. PDI is a parameter used to define the size range of particles. The term “polydispersity” (or “dispersity” as recommended by IUPAC) describes the degree of non-uniformity of a size distribution of particles. Zeta potential represents the surface charge of nanoparticles and indicates their long-term stability.

[7] abbreviates: Homo sapiens, MRC5, 72 h, 2,000 cells per well (non-small cell carcinoma experiments).
[8] abbreviates: Homo sapiens, MRC5, 72 h, 4,000 cells per well (glioblastoma experiments).

In general, IC50 refers to the concentration that gives 50% inhibition. Consider `CC1(C)CCC[C@]2(C)[C@@H](CC[C@@](C)(O)/C=C/c3ccc(CNCCCNC(=O)CCC(=O)O)cc3)[C@](C)(O)CC[C@@H]12` [LIG1, 4-((3-((4-((R,E)-3-hydroxy-5-((1R,2R,4aS,8aS)-2-hydroxy-2,5,5,8a-tetramethyldecahydronaphthalen-1-yl)-3-methylpent-1-en-1-yl)benzyl)amino)propyl)amino)-4-oxobutanoic acid], for which the IC50 in series [1] (Homo sapiens, NCI-H460) was found to be 41.7 µM; in series [2] (Homo sapiens) it was 74.4 µM; in series [3] (setting [7]), 393 µM; in series [3] (setting [8]), 236 µM; in series [4] (Homo sapiens, NCI-H460), 55.2 µM; in series [5] (Homo sapiens, U87-TxR), 61.7 µM. In addition, the “Selectivity Index” value in series [1] worked out at 9.4; in series [2], 3.2. Moreover, the “Relative Resistance” value in series [4] amounted to 1.3; in series [5], 0.8.

For `CC1(C)CCC[C@]2(C)[C@@H](CC[C@@](C)(O)/C=C/c3ccc(CNCCCCCCNC(=O)CCC(=O)O)cc3)[C@](C)(O)CC[C@@H]12` [LIG2, 4-((6-((4-((R,E)-3-hydroxy-5-((1R,2R,4aS,8aS)-2-hydroxy-2,5,5,8a-tetramethyldecahydronaphthalen-1-yl)-3-methylpent-1-en-1-yl)benzyl)amino)hexyl)amino)-4-oxobutanoic acid], the IC50 in series [1] (Homo sapiens, NCI-H460) was 99.6 µM; in series [2] (Homo sapiens), 345 µM; in series [3] (setting [7]), 610 µM; in series [3] (setting [8]), above 400 µM; in series [4] (Homo sapiens, NCI-H460), 110 µM; in series [5] (Homo sapiens, U87-TxR) it was 273 µM. For the same compound, the entries for the “Selectivity Index” value in series [1] and in series [2] were 6.1 and above 1.2, respectively. Further, the results for the “Relative Resistance” value in series [4] and in series [5] were 1.1 and 0.8, respectively.

“N1-((2S,3S,4S,6R)-3-hydroxy-2-methyl-6-(((1S,3S)-3,5,12-trihydroxy-3-(2-hydroxyacetyl)-10-methoxy-6,11-dioxo-1,2,3,4,6,11-hexahydrotetracen-1-yl)oxy)tetrahydro-2H-pyran-4-yl)-N4-(6-((4-((R,E)-3-hydroxy-5-((1R,2R,4aS,8aS)-2-hydroxy-2,5,5,8a-tetramethyldecahydronaphthalen-1-yl)-3-methylpent-1-en-1-yl)benzyl)amino)hexyl) succinamide [CON2]”: the IC50 in series [1] was 25.1 µM; in series [2] it was 6.2 µM; in series [3] (2,000 cells per well (non-small cell carcinoma experiments)), 131 µM; in series [3] (4,000 cells per well (glioblastoma experiments)), above 400 µM; in series [4], 83.3 µM; in series [5], 26.2 µM. Further, the “Selectivity Index” value was 5.2 in series [1] and above 64.5 in series [2]. The results for the “Relative Resistance” value in series [4] and in series [5] were 3.3 and 4.2, respectively. The compound further came in with a Z-Average in series [6] of 180 ± 14.7 nm·days.
